System: MV-4-11 cells
Assay: Gene expression microarray analysis (Affymetrix PrimeView) and GSEA
Format: cell-based, human
Set-up: RFU PODN (11730768_x_at) / Fold change /veh PODN (11730768_x_at) / RFU LINC00158 (11744669_a_at) / Fold change /veh LINC00158 (11744669_a_at) / RFU DUSP10 (11751237_a_at) / Fold change /veh DUSP10 (11751237_a_at) / RFU ID3 (11757404_x_at) / Fold change /veh ID3 (11757404_x_at) / RFU PLEKHG5 (11737974_s_at) / Fold change /veh PLEKHG5 (11737974_s_at) / RFU LRRC4B (11730491_at) / Fold change /veh LRRC4B (11730491_at) / RFU GIMAP4 (11747438_a_at) / Fold change /veh GIMAP4 (11747438_a_at) / RFU KRT8 (11758183_x_at) / Fold change /veh KRT8 (11758183_x_at) / RFU CNN1 (11734310_a_at) / Fold change /veh CNN1 (11734310_a_at) / RFU VPS37D (11726825_at) / Fold change /veh VPS37D (11726825_at) / RFU C10orf10 (11716522_x_at) / Fold change /veh C10orf10 (11716522_x_at) / RFU KIR2DL2 /// KIR2DL4 /// KIR2DL5A /// KIR2DL5B /// KIR2DS1 /// KIR2DS2 /// KIR2DS3 /// KIR2DS4 /// KIR3DL3 /// KIR3DL3 /// KIR3DS1 (11738374_at) / Fold change /veh KIR2DL2 /// KIR2DL4 /// KIR2DL5A /// KIR2DL5B /// KIR2DS1 /// KIR2DS2 /// KIR2DS3 /// KIR2DS4 /// KIR3DL3 /// KIR3DL3 /// KIR3DS1 (11738374_at) / RFU C1QL1 (11718748_at) / Fold change /veh C1QL1 (11718748_at) / RFU TMPRSS4 (11747572_a_at) / Fold change /veh TMPRSS4 (11747572_a_at) / RFU HAMP (11756126_x_at) / Fold change /veh HAMP (11756126_x_at) / RFU RNFT2 (11725882_a_at) / Fold change /veh RNFT2 (11725882_a_at) / RFU NR4A2 (11747474_a_at) / Fold change /veh NR4A2 (11747474_a_at) / RFU ABCC12 (11746883_a_at) / Fold change /veh ABCC12 (11746883_a_at) / RFU TMEM136 (11760407_x_at) / Fold change /veh TMEM136 (11760407_x_at) / RFU CLDN22 /// WWC2 (11732394_at) / Fold change /veh CLDN22 /// WWC2 (11732394_at) / RFU HLA-DPB1 (11760878_x_at) / Fold change /veh HLA-DPB1 (11760878_x_at) / RFU SPINT1 (11716480_a_at) / Fold change /veh SPINT1 (11716480_a_at) / RFU GAP43 (11754022_s_at) / Fold change /veh GAP43 (11754022_s_at) / RFU A4GNT (11735810_at) / Fold change /veh A4GNT (11735810_at) / RFU PRB3 (11715151_x_at) / Fold change /veh PRB3 (11715151_x_at) / RFU TUBB4B (11761932_at) / Fold change /veh TUBB4B (11761932_at) / RFU CAPN14 (11732068_a_at) / Fold change /veh CAPN14 (11732068_a_at) / RFU TMCC2 (11721928_a_at) / Fold change /veh TMCC2 (11721928_a_at) / RFU IRGQ (11745062_a_at) / Fold change /veh IRGQ (11745062_a_at) / RFU FAM174B (11720279_a_at) / Fold change /veh FAM174B (11720279_a_at) / RFU TMPRSS4 (11748680_a_at) / Fold change /veh TMPRSS4 (11748680_a_at) / RFU FAM212B (11763350_a_at) / Fold change /veh FAM212B (11763350_a_at) / RFU PLEKHG5 (11743358_a_at) / Fold change /veh PLEKHG5 (11743358_a_at) / RFU ZSCAN30 (11745921_a_at) / Fold change /veh ZSCAN30 (11745921_a_at) / RFU CMKLR1 (11741424_a_at) / Fold change /veh CMKLR1 (11741424_a_at) / RFU LOC101060620 /// MAPK8IP1 (11723275_at) / Fold change /veh LOC101060620 /// MAPK8IP1 (11723275_at) / RFU SPTSSB (11747773_x_at) / Fold change /veh SPTSSB (11747773_x_at) / RFU PRSS12 (11739890_at) / Fold change /veh PRSS12 (11739890_at) / RFU BIN1 (11741810_x_at) / Fold change /veh BIN1 (11741810_x_at) / RFU WNT11 (11732464_a_at) / Fold change /veh WNT11 (11732464_a_at) / RFU C10orf10 (11716521_a_at) / Fold change /veh C10orf10 (11716521_a_at) / RFU C5orf56 (11738089_at) / Fold change /veh C5orf56 (11738089_at) / RFU CYB561 (11721691_x_at) / Fold change /veh CYB561 (11721691_x_at) / RFU ANKRD19P (11752326_a_at) / Fold change /veh ANKRD19P (11752326_a_at) / RFU OR2T12 /// OR2T33 /// OR2T8 (11738714_s_at) / Fold change /veh OR2T12 /// OR2T33 /// OR2T8 (11738714_s_at) / RFU VCAN (11748164_a_at) / Fold change /veh VCAN (11748164_a_at) / RFU JSRP1 (11732532_at) / Fold change /veh JSRP1 (11732532_at) / RFU KRTAP10-11 (11738290_x_at) / Fold change /veh KRTAP10-11 (11738290_x_at) / RFU MYO3A (11730013_a_at) / Fold change /veh MYO3A (11730013_a_at) / RFU EBF3 (11725865_a_at) / Fold change /veh EBF3 (11725865_a_at) / RFU CAMK2N1 (11719241_x_at) / Fold change /veh CAMK2N1 (11719241_x_at) / RFU C5orf56 (11738088_a_at) / Fold change /veh C5orf56 (11738088_a_at) / RFU OLFML3 (11715873_a_at) / Fold change /veh OLFML3 (11715873_a_at) / RFU LOC100653217 /// NTM (11731650_a_at) / Fold change /veh LOC100653217 /// NTM (11731650_a_at) / RFU MAPK11 (11762145_a_at) / Fold change /veh MAPK11 (11762145_a_at) / RFU FIZ1 (11724087_x_at) / Fold change /veh FIZ1 (11724087_x_at) / RFU OASL (11726364_x_at) / Fold change /veh OASL (11726364_x_at) / RFU SOX15 (11748057_x_at) / Fold change /veh SOX15 (11748057_x_at) / RFU CD79A (11719716_a_at) / Fold change /veh CD79A (11719716_a_at) / RFU HIST1H1D (11736915_at) / Fold change /veh HIST1H1D (11736915_at) / RFU CASKIN2 (11723855_a_at) / Fold change /veh CASKIN2 (11723855_a_at) / RFU LOC730098 (11760151_x_at) / Fold change /veh LOC730098 (11760151_x_at) / RFU OR4N2 (11742367_at) / Fold change /veh OR4N2 (11742367_at) / RFU PRRT2 (11749266_a_at) / Fold change /veh PRRT2 (11749266_a_at) / RFU SNX32 (11753110_a_at) / Fold change /veh SNX32 (11753110_a_at) / RFU CDHR5 (11726645_a_at) / Fold change /veh CDHR5 (11726645_a_at) / RFU RCAN1 (11760418_a_at) / Fold change /veh RCAN1 (11760418_a_at) / RFU FAM167A (11723789_a_at) / Fold change /veh FAM167A (11723789_a_at) / RFU FAM26E (11764081_at) / Fold change /veh FAM26E (11764081_at) / RFU ISYNA1 (11749810_s_at) / Fold change /veh ISYNA1 (11749810_s_at) / RFU ACY1 (11761880_at) / Fold change /veh ACY1 (11761880_at) / RFU 11764098_at / Fold change /veh 11764098_at / RFU SAMD14 (11745864_x_at) / Fold change /veh SAMD14 (11745864_x_at) / RFU NPB (11741838_a_at) / Fold change /veh NPB (11741838_a_at) / RFU TMPRSS6 (11731388_a_at) / Fold change /veh TMPRSS6 (11731388_a_at) / RFU KRTAP10-2 (11738614_at) / Fold change /veh KRTAP10-2 (11738614_at) / RFU ARHGAP8 /// PRR5-ARHGAP8 (11727945_x_at) / Fold change /veh ARHGAP8 /// PRR5-ARHGAP8 (11727945_x_at) / RFU KRTAP5-7 /// NADSYN1 (11734609_at) / Fold change /veh KRTAP5-7 /// NADSYN1 (11734609_at) / RFU RASL12 (11751679_a_at) / Fold change /veh RASL12 (11751679_a_at) / RFU CDKN2B (11736163_a_at) / Fold change /veh CDKN2B (11736163_a_at) / RFU PRF1 (11729649_at) / Fold change /veh PRF1 (11729649_at) / RFU, ZNF638 /// ZNF638-IT1 / Fold change vs veh, ZNF638 /// ZNF638-IT1 / RFU, PANK3 / Fold change vs veh, PANK3 / RFU, SH3YL1 / Fold change vs veh, SH3YL1 / RFU, ZEB2 / Fold change vs veh, ZEB2 / RFU, NRIP1 / Fold change vs veh, NRIP1 / RFU, PTTG1IP / Fold change vs veh, PTTG1IP / RFU, CAPN2 / Fold change vs veh, CAPN2 / RFU, MED14 / Fold change vs veh, MED14 / RFU, SNORA58 / Fold change vs veh, SNORA58 / RFU, C1orf63 / Fold change vs veh, C1orf63 / RFU, LRRFIP1 / Fold change vs veh, LRRFIP1 / RFU, NDUFAF7 / Fold change vs veh, NDUFAF7 / RFU, SLC12A2 / Fold change vs veh, SLC12A2 / RFU, IBTK / Fold change vs veh, IBTK / RFU, ESF1 / Fold change vs veh, ESF1 / Fold change vs veh, TMEM50B / RFU, TAOK1 / Fold change vs veh, TAOK1 / RFU, ACBD3 / Fold change vs veh, ACBD3 / RFU, TMA16 / Fold change vs veh, TMA16 / RFU, RWDD3 / Fold change vs veh, RWDD3 / RFU, BCAT1 / Fold change vs veh, BCAT1 / RFU, EDEM3 / Fold change vs veh, EDEM3 / RFU, TMEM33 / Fold change vs veh, TMEM33 / RFU, WDR75 / Fold change vs veh, WDR75 / RFU, AHCTF1 / Fold change vs veh, AHCTF1 / RFU, TFRC / Fold change vs veh, TFRC / RFU, ZDHHC17 / Fold change vs veh, ZDHHC17 / RFU, NOM1 / Fold change vs veh, NOM1 / RFU, ARL8B / Fold change vs veh, ARL8B / RFU, ZBTB11 / Fold change vs veh, ZBTB11 / RFU, TAMM41 / Fold change vs veh, TAMM41 / RFU, KIAA1704 /// LOC100996395 / Fold change vs veh, KIAA1704 /// LOC100996395 / RFU, ING1 / Fold change vs veh, ING1 / RFU, TRMT61B / Fold change vs veh, TRMT61B / RFU, FUBP3 / Fold change vs veh, FUBP3 / RFU, TP53 / Fold change vs veh, TP53 / RFU, TNKS2 / Fold change vs veh, TNKS2 / RFU, ZFP14 / Fold change vs veh, ZFP14 / RFU, ACTR2 / Fold change vs veh, ACTR2 / RFU, PPP3R1 / Fold change vs veh, PPP3R1 / RFU, PIK3R1 / Fold change vs veh, PIK3R1 / RFU, HNRNPA1 / Fold change vs veh, HNRNPA1 / RFU, RNF170 / Fold change vs veh, RNF170 / RFU, ZNF28 / Fold change vs veh, ZNF28 / RFU, RNGTT / Fold change vs veh, RNGTT / RFU, OGT / Fold change vs veh, OGT / RFU, BRD1 / Fold change vs veh, BRD1 / RFU, MARS / Fold change vs veh, MARS / RFU, ZNF655 / Fold change vs veh, ZNF655 / RFU, FAHD1 / Fold change vs veh, FAHD1 / RFU, BDP1 / Fold change vs veh, BDP1 / RFU, LRRCC1 / Fold change vs veh, LRRCC1 / RFU, ARID1A / Fold change vs veh, ARID1A / RFU, ZNF146 / Fold change vs veh, ZNF146 / RFU, ZNF330 / Fold change vs veh, ZNF330 / RFU, GPN3 / Fold change vs veh, GPN3 / RFU, C9orf123 / Fold change vs veh, C9orf123 / RFU, N4BP2L2 / Fold change vs veh, N4BP2L2 / RFU, ARFIP1 / Fold change vs veh, ARFIP1 / RFU, FAM179B / Fold change vs veh, FAM179B / RFU, BCL10 / Fold change vs veh, BCL10 / RFU, UHRF1BP1L / Fold change vs veh, UHRF1BP1L / RFU, BET1 / Fold change vs veh, BET1 / RFU, CNOT2 / Fold change vs veh, CNOT2 / RFU, ZNF268 / Fold change vs veh, ZNF268 / Fold change vs veh, ZNF507 / RFU, DGCR2 / Fold change vs veh, DGCR2 / RFU, WDSUB1 / Fold change vs veh, WDSUB1 / Fold change vs veh, HSP90B1 /// MIR3652 / RFU, ADSS / Fold change vs veh, ADSS / RFU, GK / Fold change vs veh, GK / RFU, ZNF148 / Fold change vs veh, ZNF148 / RFU, TAF9 / Fold change vs veh, TAF9 / RFU, SLC1A5 / Fold change vs veh, SLC1A5 / RFU, SLMO2 / Fold change vs veh, SLMO2 / RFU, ABCC4 / Fold change vs veh, ABCC4 / RFU, LOC101060439 /// RAP1B / Fold change vs veh, LOC101060439 /// RAP1B / RFU, RFX7 / Fold change vs veh, RFX7 / RFU, GTPBP10 / Fold change vs veh, GTPBP10 / RFU, CNEP1R1 / Fold change vs veh, CNEP1R1 / RFU, BIVM-ERCC5 /// ERCC5 / Fold change vs veh, BIVM-ERCC5 /// ERCC5 / RFU, ILF3 / Fold change vs veh, ILF3 / RFU 11762660_at / Fold change /veh 11762660_at / RFU VCAN (11757783_s_at) / Fold change /veh VCAN (11757783_s_at) / RFU DDX43 (11728927_at) / Fold change /veh DDX43 (11728927_at) / RFU KRT8 (11758188_x_at) / Fold change /veh KRT8 (11758188_x_at) / RFU NKD1 (11759106_at) / Fold change /veh NKD1 (11759106_at) / RFU SRD5A1 (11742802_a_at) / Fold change /veh SRD5A1 (11742802_a_at) / RFU TPSAB1 /// TPSB2 (11721975_s_at) / Fold change /veh TPSAB1 /// TPSB2 (11721975_s_at) / RFU GSTM3 (11746129_a_at) / Fold change /veh GSTM3 (11746129_a_at) / RFU IL23R (11737362_x_at) / Fold change /veh IL23R (11737362_x_at) / RFU TMEM51 (11727254_a_at) / Fold change /veh TMEM51 (11727254_a_at) / RFU PIWIL2 (11732686_x_at) / Fold change /veh PIWIL2 (11732686_x_at) / RFU ORM1 (11744905_x_at) / Fold change /veh ORM1 (11744905_x_at) / RFU CCDC152 (11743942_at) / Fold change /veh CCDC152 (11743942_at) / RFU ECM1 (11717891_a_at) / Fold change /veh ECM1 (11717891_a_at) / RFU IL23R (11748794_a_at) / Fold change /veh IL23R (11748794_a_at) / RFU TNFAIP8L3 (11732012_x_at) / Fold change /veh TNFAIP8L3 (11732012_x_at) / RFU MBOAT4 (11741988_at) / Fold change /veh MBOAT4 (11741988_at) / RFU 11764193_at / Fold change /veh 11764193_at / RFU TMEM53 (11763286_at) / Fold change /veh TMEM53 (11763286_at) / RFU MAGEB2 (11727129_at) / Fold change /veh MAGEB2 (11727129_at) / RFU TMEM200A (11744735_a_at) / Fold change /veh TMEM200A (11744735_a_at) / RFU CCDC152 (11751479_a_at) / Fold change /veh CCDC152 (11751479_a_at) / RFU FAM211A (11726209_a_at) / Fold change /veh FAM211A (11726209_a_at) / RFU RGS16 (11746705_a_at) / Fold change /veh RGS16 (11746705_a_at) / RFU VCAN (11755009_s_at) / Fold change /veh VCAN (11755009_s_at) / RFU RHOB (11743442_s_at) / Fold change /veh RHOB (11743442_s_at) / RFU RGS16 (11720943_a_at) / Fold change /veh RGS16 (11720943_a_at) / RFU RGS16 (11720944_at) / Fold change /veh RGS16 (11720944_at) / RFU, VPS4B / Fold change vs veh, VPS4B / RFU, CREB1 / Fold change vs veh, CREB1 / RFU, DNAJC13 / Fold change vs veh, DNAJC13 / RFU, GNAQ / Fold change vs veh, GNAQ / RFU, CDK5R1 / Fold change vs veh, CDK5R1 / RFU, ZRANB3 / Fold change vs veh, ZRANB3 / RFU, CUL4A / Fold change vs veh, CUL4A / RFU, CCNY / Fold change vs veh, CCNY / RFU, UFL1 / Fold change vs veh, UFL1 / RFU, COG3 / Fold change vs veh, COG3 / RFU, DIAPH2 / Fold change vs veh, DIAPH2 / RFU, SKA2 / Fold change vs veh, SKA2 / RFU, AFF3 / Fold change vs veh, AFF3 / RFU, LMF1 / Fold change vs veh, LMF1 / RFU, IPO11 / Fold change vs veh, IPO11 / RFU, DFFB / Fold change vs veh, DFFB / RFU, FOXP1 / Fold change vs veh, FOXP1 / RFU, CARD8 / Fold change vs veh, CARD8 / RFU, STRN3 / Fold change vs veh, STRN3 / RFU, ADK / Fold change vs veh, ADK / RFU, RASSF2 / Fold change vs veh, RASSF2 / RFU, WIPF1 / Fold change vs veh, WIPF1 / RFU, LARP1B / Fold change vs veh, LARP1B / RFU, RASA1 / Fold change vs veh, RASA1 / RFU, RB1 / Fold change vs veh, RB1 / RFU, PPFIA1 / Fold change vs veh, PPFIA1 / RFU, MAT2A / Fold change vs veh, MAT2A / RFU, CCT5 / Fold change vs veh, CCT5 / RFU, WDR92 / Fold change vs veh, WDR92 / RFU, CUX1 / Fold change vs veh, CUX1 / RFU, TTC7A / Fold change vs veh, TTC7A / RFU, TMEM135 / Fold change vs veh, TMEM135 / RFU, DEPTOR / Fold change vs veh, DEPTOR / RFU, CPM / Fold change vs veh, CPM / RFU, DNAJB6 / Fold change vs veh, DNAJB6 / RFU, CACNA2D3 / Fold change vs veh, CACNA2D3 / RFU, DTX4 / Fold change vs veh, DTX4 / RFU, TFCP2 / Fold change vs veh, TFCP2 / RFU, GMCL1 /// GMCL1P1 / Fold change vs veh, GMCL1 /// GMCL1P1 / RFU, AEBP2 / Fold change vs veh, AEBP2 / RFU, SNHG1 /// SNORD22 /// SNORD25 /// SNORD26 /// SNORD27 /// SNORD28 /// SNORD29 /// SNORD31 / Fold change vs veh, SNHG1 /// SNORD22 /// SNORD25 /// SNORD26 /// SNORD27 /// SNORD28 /// SNORD29 /// SNORD31 / Fold change (Aza/veh), C12orf56 (ProbeSet 11735607_a_at) / Fold change (ACY-1035/veh), C12orf56 (ProbeSet 11735607_a_at) / Fold change (Aza/veh), FGFR1OP (ProbeSet 11751329_s_at) / Fold change (ACY-1035/veh), FGFR1OP (ProbeSet 11751329_s_at) / Fold change (Aza/veh), VPS36 (ProbeSet 11739960_a_at) / Fold change (ACY-1035/veh), VPS36 (ProbeSet 11739960_a_at) / RFU SYPL1 (11715823_x_at) / Fold change /veh SYPL1 (11715823_x_at) / RFU IGFBP7 (11715501_s_at) / Fold change /veh IGFBP7 (11715501_s_at) / RFU REEP3 (11722064_at) / Fold change /veh REEP3 (11722064_at) / RFU IGLL1 (11728026_x_at) / Fold change /veh IGLL1 (11728026_x_at): dose or concentration left out as unconfirmed
Conditions: MV-4-11 cells, 48 hours

Q: Which “Fold change /veh CAPN14 (11732068_a_at)” value does the source give for `Nc1ncn([C@@H]2O[C@H](CO)[C@@H](O)[C@H]2O)c(=O)n1` [azacitidine] here?
A: 1.07

— PMC5218480 (PLoS ONE, 2017)
